Assay results taken from PMC5356016, “Suppression of Sin3A activity promotes differentiation of pluripotent cells into functional neurons” (Scientific Reports, 2017).
Each block holds one molecule with its values, some of them ahead of it. Where no end group is shown, it is not given here.

B1: mouse Sin3A PAH1 (residues 114-195) (domain or fragment, UniProt Q60520 114-195, looked up)
chain: GQQQFQRLKVEDALSYLDQVKLQFGSQPQVYNDFLDIMKEFKSQSIDTPGVISRVSQLFKGHPDLIMGFNTFLPPGYKIEVQ
notes: Sin3A, mouse, paired amphipathic helix 1 (PAH1) domain, residues 114-195
B6: GST-REST, mouse REST (residues 31-120) (domain or fragment, UniProt Q8VIG1 31-120, looked up)
chain: YDLHELSKAELAAPQLIMLANVALTGEASGSCCDYLVGEERQMAELMPVGDNHFSESEGEGLEESADLKGLENMELGSLELSAVEPQPVF
notes: RE1 silencing transcription factor (REST), mouse, residues 31-120

How the values were obtained:
[1] = system: PDZ domain of Dishevelled (Dvl/Dsh) protein; details: upstream inhibitor for the Wnt/β-catenin pathway; ref [28]; cited from earlier work
Wnt/β-catenin pathway = experiment: Signaling pathway study, Wnt/β-catenin pathway inhibitors in Sin3A knockdown P19 cells; format: cell-based, mouse; details: for transcriptional level of NeuroD1 (in words): RT-PCR; for neurogenesis inducing capability of Sin3A-silenced cells (in words) / translational level of β-catenin (in words): versus untreated cells; for neurogenesis inducing capability of Sin3A-silenced cells (in words): at least three experiments; for translational level of β-catenin (in words): western blot
[2] = system: complex between Tcf4 and β-catenin; details: downstream inhibitor for the Wnt/β-catenin pathway; no reference given; cited from earlier work
P19 cells = experiment: Astrocyte differentiation of P19 cells (GFAP and S100); format: cell-based, mouse; details: 1 μM retinoic acid, 10 days, untransfected P19 cells; Tuj1, GFAP, S100 immunocytochemistry
Shh signaling pathway = experiment: Signaling pathway study, Shh pathway inhibitor in Sin3A knockdown P19 cells; format: cell-based, mouse; details: 30 μM Cur61414, 10 days; Tuj1 immunocytochemistry, western blot, RT-PCR; at least three experiments
Procedure: Figure 2 Signaling pathways associated with Sin3A knockdown-induced neurogenesis in P19 cells. (a–c) Sin3A knockdown P19 cells were incubated for 10 days in the absence and presence of an inhibitor for the Wnt pathway, 30 μM NSC668036 or 25 nM PFK118-310. (a) The cells were immunostained with Tuj1 antibody ([…]). (b) Expression levels of β-catenin and Tuj1 were examined by using western blot analysis. (c) Transcriptional levels of Tuj1 and NeuroD1 were examined by using RT-PCR. (d-e) Sin3A knockdown P19 cells were incubated for 10 days in the absence and presence of an inhibitor for the Shh pathway, 30 μM Cur61414. (d) The cells were immunostained with Tuj1 antibody ([…]). (e) The expression level of Tuj1 was examined by using western blot and (f) RT-PCR analyses. All experiments were conducted at least three times.
SMART™ BCA Protein Assay Kit (iNtRON Biot echnology). […]
Sin3A and Sin3B knockdown P19 cells were incubated for 10 days without any treatment. mRNA samples were isolated using an mRNA extraction kit (iNtRON Biotechnology, Inc.) according to the manufacture’s protocol. Samples were analyzed in duplicates on the GeneChip® Mouse Gene 2.0 ST Array (Affymetrix). […]

smoothened (SMO) = system: smoothened (SMO); set-up: method as in PMID 12679522; details: Shh signaling pathway; ref [30]; cited from earlier work
[3] = biological target: B6; experiment: ELISA; Sin3A PAH1 and PAH2 with mouse REST (residues 31-120); who was coated is not told for this experiment; details: both partners purified
[4] = system: mouse REST (residues 31–120); experiment: ELISA binding of Sin3A PAH1 and PAH2 domains to REST; details: wells coated with PAH1 or PAH2 (1 μg/mL), GST-REST 0-2 μg/mL, 2 h, mean ± s.d., n = 3
[5] = biological target: T1, mouse Sin3A PAH2 (residues 295-385) (mouse, UniProt Q60520 295-385); experiment: fluorescence polarisation; FITC-labeled Mad1 and SAP25 peptides incubated separately with various concentrations of PAH1 and PAH2; details: both partners purified
T1 construct: Sin3A, mouse, paired amphipathic helix 2 (PAH2) domain, residues 295-385
T1 sequence (looked up): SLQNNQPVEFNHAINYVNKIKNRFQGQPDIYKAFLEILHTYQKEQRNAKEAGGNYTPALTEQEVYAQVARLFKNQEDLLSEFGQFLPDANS

[6] = biological target: T1, mouse Sin3A PAH2 (residues 295-385); experiment: ELISA; competition: PAH1 or PAH2 (1 ug/mL) coated wells pre-incubated 2 h with various concentrations of SAP25 or Mad1 peptide, then GST-REST (2 ug/mL) for 2 h; detected with anti-GST antibody and HRP conjugated secondary antibody; details: both partners purified
[7] = biological target: B1; experiment: as above; details: both partners purified
[8] = biological target: T1, mouse Sin3A PAH2 (residues 295-385); experiment: ELISA; Sin3A PAH1 and PAH2 with mouse REST (residues 31-120); who was coated is not told for this experiment; details: both partners purified
[9] = biological target: B1; experiment: fluorescence polarisation; FITC-labeled Mad1 and SAP25 peptides incubated separately with various concentrations of PAH1 and PAH2; details: both partners purified

Molecule: CC(NC(=O)C(OC(=O)C(C)NC(=O)OC(C)(C)C)C(C)C)C(=O)OC(C(=O)O)C(C)C (stereo not shown) [NSC668036]
binding to PDZ domain and inhibition of Dvl-Frizzled interaction (in words) [1]: binds to the PDZ domain of Dishevelled (Dvl/Dsh) protein, a key component of Wnt signaling, and inhibits its interaction with Frizzled (Fzd) | transcriptional level of NeuroD1 (in words) (Wnt/β-catenin pathway; 30 μM NSC668036, 10 days): greatly reduced | neurogenesis inducing capability of Sin3A-silenced cells (in words) (Wnt/β-catenin pathway; 30 μM NSC668036, 10 days): attenuated | translational level of β-catenin (in words) (Wnt/β-catenin pathway; 30 μM NSC668036, 10 days): markedly decreased

Molecule: Cn1ncnc2c(=O)n(C)c(=O)nc1-2 [PKF118-310]
inhibition of Tcf4/β-catenin complex formation (in words) [2]: blocks the formation of the complex between Tcf4 and β-catenin | transcriptional level of NeuroD1 (in words) (Wnt/β-catenin pathway; 25 nM PKF118-310, 10 days): greatly reduced | neurogenesis inducing capability of Sin3A-silenced cells (in words) (Wnt/β-catenin pathway; 25 nM PKF118-310, 10 days): attenuated | translational level of β-catenin (in words) (Wnt/β-catenin pathway; 25 nM PKF118-310, 10 days): markedly decreased

Molecule: CC1=C(/C=C/C(C)=C/C=C/C(C)=C/C(=O)O)C(C)(C)CCC1 [RA, retinoic acid]
neurogenesis and astrogenesis of RA-treated P19 cells (in words) (P19 cells): underwent neurogenesis and astrogenesis

Molecule: COc1cccc(CN(C(=O)CC(C)(C)C)[C@H]2C[C@@H](C(=O)N3CCNCC3)N(Cc3ccc4c(c3)OCO4)C2)c1 [Cur61414]
neurogenesis-inducing ability of Sin3A-knockdown cells (in words) (Shh signaling pathway): greatly reduced | inhibition of smoothened (in words) (smoothened (SMO)): a known inhibitor of smoothened (SMO)

Molecule: B1
binding result [3]: binds | binding to REST (in words) [4]: bind with near equal strengths to REST

binding result [5]: binds
B2: FITC-labeled Mad1 peptide (sequence 6-21 of the Mad1 protein) (peptide)
peptide: RMNIQMLLEAADYLER
modifications: also: FITC label, position not given here
notes: Mad1 protein, residues 6-21; where the FITC is attached may be told there; source: synthetic peptide (solid support, Fmoc/t-Bu strategy)

binding result [6]: binds
B3: Mad1 peptide (sequence 6-21 of the Mad1 protein) (peptide)
peptide: RMNIQMLLEAADYLER
notes: Mad1 protein, residues 6-21; source: synthetic peptide (solid support, Fmoc/t-Bu strategy)

binding result [7]: binds
B4: SAP25 peptide (sequence 171-186 of the SAP25 protein) (peptide)
peptide: AEMIALAGLLQMSQGE
notes: SAP25 protein, residues 171-186; source: synthetic peptide (solid support, Fmoc/t-Bu strategy)

binding to REST (in words) [4]: bind with near equal strengths to REST
B5: PAH2: mouse Sin3A PAH2 (residues 295–385) (protein)
chain: SLQNNQPVEFNHAINYVNKIKNRFQGQPDIYKAFLEILHTYQKEQRNAKEAGGNYTPALTEQEVYAQVARLFKNQEDLLSEFGQFLPDANS

Molecule: B6
binding result [8]: binds

binding result [9]: binds
B7: FITC-labeled SAP25 peptide (sequence 171-186 of the SAP25 protein) (peptide)
peptide: AEMIALAGLLQMSQGE
modifications: also: FITC label, position not given here
notes: SAP25 protein, residues 171-186; where the FITC is attached may be told there; source: synthetic peptide (solid support, Fmoc/t-Bu strategy)
